The assay deals with T1, PLK1 (Homo sapiens, UniProt P53350).
T1 construct: endogenous in cells; host or cells: HeLa
The assay can be described thus: PLK1 protein degradation in HeLa cells, Western blotting (PLK1/GAPDH ratio). Format: cell-based. As to conditions: 6 hours compound incubation; for Dmax: thymidine block and release, 10 points three-fold from 3 μM, PLK1 to GAPDH ratio, read-out: Dmax; for DC50: measured only if the grade of Dmax is A or B. The gist of the method:
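PLK1 level measured by Western blot as PLK1/GAPDH in HeLa lysates (15 μg protein per lane). Cells were blocked with 2 mM thymidine 24 h, released 4 h, and exposed 6 h to compound, 10 concentrations, 3-fold steps, top 3 μM.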

T1 sequence (P53350 whole entry): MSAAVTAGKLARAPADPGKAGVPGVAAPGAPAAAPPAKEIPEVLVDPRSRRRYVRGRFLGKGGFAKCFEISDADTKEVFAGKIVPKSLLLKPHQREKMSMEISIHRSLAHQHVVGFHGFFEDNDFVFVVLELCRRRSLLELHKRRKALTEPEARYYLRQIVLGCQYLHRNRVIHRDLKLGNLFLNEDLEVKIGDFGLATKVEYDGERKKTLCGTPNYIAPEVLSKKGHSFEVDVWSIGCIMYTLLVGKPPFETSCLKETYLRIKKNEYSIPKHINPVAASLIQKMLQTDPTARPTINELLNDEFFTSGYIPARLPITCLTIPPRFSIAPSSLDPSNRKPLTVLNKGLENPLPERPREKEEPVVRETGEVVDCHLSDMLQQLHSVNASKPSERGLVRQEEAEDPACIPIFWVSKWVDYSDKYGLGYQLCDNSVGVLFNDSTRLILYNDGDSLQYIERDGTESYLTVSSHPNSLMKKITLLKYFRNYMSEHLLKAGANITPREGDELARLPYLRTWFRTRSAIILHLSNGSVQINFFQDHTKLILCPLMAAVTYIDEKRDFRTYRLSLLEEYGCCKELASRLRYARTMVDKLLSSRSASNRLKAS

As for `COc1cc(C(=O)NC2CCN(CCOCCOCCOCCOc3cc(-c4scnc4C)ccc3CNC(=O)[C@@H]3C[C@@H](O)CN3C(=O)[C@@H](NC(=O)C3(F)CC3)C(C)(C)C)CC2)c(F)cc1Nc1ncc2c(n1)N(C1CCCC1)CC(F)(F)C(=O)N2C` [Example 87, (2S,4R)—N-(2-(2-(2-(2-(2-(4-(4-((9-cyclopentyl-7,7-difluoro-5-methyl-6-oxo-6,7,8,9-tetrahydro-5H-pyrimido[4,5-b][1,4]diazepin-2-yl)amino)-2-fluoro-5-methoxybenzamido)piperidin-1-yl)ethoxy)ethoxy)ethoxy)ethoxy)-4-(4-methylthiazol-5-yl)benzyl)-1-((S)-2-(1-fluorocyclopropane-1-carboxamido)-3,3-dimethylbutanoyl)-4-hydroxypyrrolidine-2-carboxamide], the Dmax was less than 60%.
On to `COc1cc(C(=O)NC2CCN(C(=O)CCN3CCN(c4cccc5c4C(=O)N(C4CCC(=O)NC4=O)C5=O)CC3)CC2)ccc1Nc1ncc2c(n1)N(C1CCCC1)CC(F)(F)C(=O)N2C` (stereo not drawn) [Compound 128, 4-((9-cyclopentyl-7,7-difluoro-5-methyl-6-oxo-6,7,8,9-tetrahydro-5H-pyrimido[4,5-b][1,4]diazepin-2-yl)amino)-N-(1-(3-(4-(2-(2,6-dioxopiperidin-3-yl)-1,3-dioxoisoindolin-4-yl)piperazin-1-yl)propanoyl)piperidin-4-yl)-3-methoxybenzamide], for which the DC50 was no more than 50 nM and the Dmax was no less than 80%.
Taken in the same sequence, the figures for `COc1cc(C(=O)NC2CCN(Cc3ccc(OCCNc4cccc5c4C(=O)N(C4CCC(=O)NC4=O)C5=O)cc3)CC2)c(F)cc1Nc1ncc2c(n1)N(C1CCCC1)CC(F)(F)C(=O)N2C` (stereo not drawn) [Compound 40, 4-((9-cyclopentyl-7,7-difluoro-5-methyl-6-oxo-6,7,8,9-tetrahydro-5H-pyrimido[4,5-b][1,4]diazepin-2-yl)amino)-N-(1-(4-(2-((2-(2,6-dioxopiperidin-3-yl)-1,3-dioxoisoindolin-4-yl)amino)ethoxy)benzyl)piperidin-4-yl)-2-fluoro-5-methoxybenzamide] were no more than 500 nM and 60 to 80%.
For `COc1cc(C(=O)NC2CCN(Cc3cccc(CNC(=O)COc4cccc5c4C(=O)N(C4CCC(=O)NC4=O)C5=O)c3)CC2)c(F)cc1Nc1ncc2c(n1)N(C1CCCC1)CC(F)(F)C(=O)N2C` (stereo not drawn) [Compound 61, 4-((9-cyclopentyl-7,7-difluoro-5-methyl-6-oxo-6,7,8,9-tetrahydro-5H-pyrimido[4,5-b][1,4]diazepin-2-yl)amino)-N-(1-(3-((2-((2-(2,6-dioxopiperidin-3-yl)-1,3-dioxoisoindolin-4-yl)oxy)acetamido)methyl)benzyl)piperidin-4-yl)-2-fluoro-5-methoxybenzamide] the same measures were no more than 50 nM and 60 to 80%.
For `CN1C(=O)C(F)(F)CN(C2CCCC2)c2nc(Nc3cc(F)c(C(=O)NC4CCN(CCOCCOCCNc5cccc6c5C(=O)N(C5CCC(=O)NC5=O)C6=O)CC4)cc3OC(F)(F)F)ncc21` (stereo not drawn) [Example 99, 4-((9-cyclopentyl-7,7-difluoro-5-methyl-6-oxo-6,7,8,9-tetrahydro-5H-pyrimido[4,5-b][1,4]diazepin-2-yl)amino)-N-(1-(2-(2-(2-((2-(2,6-dioxopiperidin-3-yl)-1,3-dioxoisoindolin-4-yl)amino)ethoxy)ethoxy)ethyl)piperidin-4-yl)-2-fluoro-5-(trifluoromethoxy)benzamide] the same measures were no more than 500 nM and 60 to 80%.
For the molecule `COc1cc(C(=O)N[C@H]2CCN(C(=O)CCN3CCN(c4ccc5c(c4)C(=O)N(C4CCC(=O)NC4=O)C5=O)CC3)C2)c(F)cc1Nc1ncc2c(n1)N(C1CCCC1)CC(F)(F)C(=O)N2C` (stereo partly drawn) [Compound 136, 4-((9-cyclopentyl-7,7-difluoro-5-methyl-6-oxo-6,7,8,9-tetrahydro-5H-pyrimido[4,5-b][1,4]diazepin-2-yl)amino)-N-((3S)-1-(3-(4-(2-(2,6-dioxopiperidin-3-yl)-1,3-dioxoisoindolin-5-yl)piperazin-1-yl)propanoyl)pyrrolidin-3-yl)-2-fluoro-5-methoxybenzamide], the DC50 was no more than 50 nM and the Dmax is no less than 80%.
On to `COc1cc(C(=O)NC2CCN(CCOCCOCCOCC(=O)N[C@H](C(=O)N3C[C@H](O)C[C@H]3C(=O)NCc3ccc(-c4scnc4C)cc3)C(C)(C)C)CC2)c(F)cc1Nc1ncc2c(n1)N(C1CCCC1)CC(F)(F)C(=O)N2C` [Compound 81], for which the Dmax is less than 60%.
On the same count and under the same terms, to `COc1cc(C(=O)NC2CCN(CCOCCOCC(=O)N[C@H](C(=O)N3C[C@H](O)C[C@H]3C(=O)NCc3ccc(-c4scnc4C)cc3)C(C)(C)C)CC2)c(F)cc1Nc1ncc2c(n1)N(C1CCCC1)CC(F)(F)C(=O)N2C` [Compound 80] belongs less than 60%.
For `COc1cc(C(=O)NC2CCN(CCOCCOCCOCCOCCCc3cccc4c3C(=O)N(C3CCC(=O)NC3=O)C4=O)CC2)c(F)cc1Nc1ncc2c(n1)N(C1CCCC1)CC(F)(F)C(=O)N2C` (stereo not drawn) [Compound 53, 4-((9-cyclopentyl-7,7-difluoro-5-methyl-6-oxo-6,7,8,9-tetrahydro-5H-pyrimido[4,5-b][1,4]diazepin-2-yl)amino)-N-(1-(15-(2-(2,6-dioxopiperidin-3-yl)-1,3-dioxoisoindolin-4-yl)-3,6,9,12-tetraoxapentadecyl)piperidin-4-yl)-2-fluoro-5-methoxybenzamide], the 50% degradation concentration (DC50) was no more than 50 nM and the Dmax was no less than 80%.
`COc1cc(C(=O)N[C@@H]2CCN(C(=O)CCN3CCN(c4cccc5c4C(=O)N(C4CCC(=O)NC4=O)C5=O)CC3)C2)c(F)cc1Nc1ncc2c(n1)N(C1CCCC1)CC(F)(F)C(=O)N2C` (stereo partly drawn) [Compound 132, 4-((9-cyclopentyl-7,7-difluoro-5-methyl-6-oxo-6,7,8,9-tetrahydro-5H-pyrimido[4,5-b][1,4]diazepin-2-yl)amino)-N-((3R)-1-(3-(4-(2-(2,6-dioxopiperidin-3-yl)-1,3-dioxoisoindolin-4-yl)piperazin-1-yl)propanoyl)pyrrolidin-3-yl)-2-fluoro-5-methoxybenzamide]: the 50% degradation concentration (DC50) was no more than 50 nM and the Dmax is no less than 80%.
For `COc1cc(C(=O)N[C@H]2CCN(C(=O)CCC(=O)N3CCN(c4ccc5c(c4)C(=O)N(C4CCC(=O)NC4=O)C5=O)CC3)C2)c(F)cc1Nc1ncc2c(n1)N(C1CCCC1)CC(F)(F)C(=O)N2C` (stereo partly drawn) [Compound 144, 4-((9-cyclopentyl-7,7-difluoro-5-methyl-6-oxo-6,7,8,9-tetrahydro-5H-pyrimido[4,5-b][1,4]diazepin-2-yl)amino)-N-((3S)-1-(4-(4-(2-(2,6-dioxopiperidin-3-yl)-1,3-dioxoisoindolin-5-yl)piperazin-1-yl)-4-oxobutanoyl)pyrrolidin-3-yl)-2-fluoro-5-methoxybenzamide] the same measures were no more than 50 nM and no less than 80%.
For `COc1cc(C(=O)NC2CCN(CCOCCOCCOCCOCCNc3cccc4c3C(=O)N(C3CCC(=O)N(C)C3=O)C4=O)CC2)c(F)cc1Nc1ncc2c(n1)N(C1CCCC1)CC(F)(F)C(=O)N2C` (stereo not drawn) [Compound 7, 4-((9-cyclopentyl-7,7-difluoro-5-methyl-6-oxo-6,7,8,9-tetrahydro-5H-pyrimido[4,5-b][1,4]diazepin-2-yl)amino)-2-fluoro-5-methoxy-N-(1-(14-((2-(1-methyl-2,6-dioxopiperidin-3-yl)-1,3-dioxoisoindolin-4-yl)amino)-3,6,9,12-tetraoxatetradecyl)piperidin-4-yl)benzamide], the maximal degradation (Dmax) was less than 60%.
As for `COc1cc(C(=O)NC2CCN(CCCCCCCCCCCCCCNc3cccc4c3C(=O)N(C3CCC(=O)NC3=O)C4=O)CC2)c(F)cc1Nc1ncc2c(n1)N(C1CCCC1)CC(F)(F)C(=O)N2C` (stereo not drawn) [Compound 17, 4-((9-cyclopentyl-7,7-difluoro-5-methyl-6-oxo-5H,6H,7H,8H,9H-pyrimido[4,5-b][1,4]diazepin-2-yl)amino)-N-(1-(14-((2-(2,6-dioxopiperidin-3-yl)-1,3-dioxo-2,3-dihydro-1H-isoindol-4-yl)amino)tetradecyl)piperidin-4-yl)-2-fluoro-5-methoxybenzamide], the Dmax was less than 60%.
Consider `COc1cc(C(=O)NCCCCCCCC(=O)Nc2cccc3c2C(=O)N(C2CCC(=O)NC2=O)C3=O)c(F)cc1Nc1ncc2c(n1)N(C1CCCC1)CC(F)(F)C(=O)N2C` (stereo not drawn) [Compound 158, 4-((9-cyclopentyl-7,7-difluoro-5-methyl-6-oxo-6,7,8,9-tetrahydro-5H-pyrimido[4,5-b][1,4]diazepin-2-yl)amino)-N-(8-((2-(2,6-dioxopiperidin-3-yl)-1,3-dioxoisoindolin-4-yl)amino)-8-oxooctyl)-2-fluoro-5-methoxybenzamide], for which the DC50 is no more than 500 nM and the Dmax lay in the range of 60 to 80%.
Taken in the same sequence, the figures for `COc1cc(C(=O)NC2CCN(CCCC(=O)Nc3cccc4c3C(=O)N(C3CCC(=O)NC3=O)C4=O)CC2)c(F)cc1Nc1ncc2c(n1)N(C1CCCC1)CC(F)(F)C(=O)N2C` (stereo not drawn) [Compound 37, 4-((9-cyclopentyl-7,7-difluoro-5-methyl-6-oxo-6,7,8,9-tetrahydro-5H-pyrimido[4,5-b][1,4]diazepin-2-yl)amino)-N-(1-(4-((2-(2,6-dioxopiperidin-3-yl)-1,3-dioxoisoindolin-4-yl)amino)-4-oxobutyl)piperidin-4-yl)-2-fluoro-5-methoxybenzamide] were no more than 500 nM and 60 to 80%.
Taken in the same sequence, the figures for `COc1cc(C(=O)NC2CCN(CCOCCOCCOCCOCC#Cc3cccc4c3C(=O)N(C3CCC(=O)NC3=O)C4=O)CC2)c(F)cc1Nc1ncc2c(n1)N(C1CCCC1)CC(F)(F)C(=O)N2C` (stereo not drawn) [Compound 52, 4-((9-cyclopentyl-7,7-difluoro-5-methyl-6-oxo-6,7,8,9-tetrahydro-5H-pyrimido[4,5-b][1,4]diazepin-2-yl)amino)-N-(1-(15-(2-(2,6-dioxopiperidin-3-yl)-1,3-dioxoisoindolin-4-yl)-3,6,9,12-tetraoxapentadec-14-yn-1-yl)piperidin-4-yl)-2-fluoro-5-methoxybenzamide] were no more than 50 nM and no less than 80%.

Values taken from patent US20230372498A1, “PLK1 SELECTIVE DEGRADATION INDUCING COMPOUND” (UPPTHERA, priority 2020, published 2023).
